Assay results: US20150196025A1, “BIOACTIVE HEME-HALOPEROXIDASE COMPOSITIONS AND METHODS OF THEIR USE” (Exoxemis, Inc., priority 2014, published 2015)

Legend:
Assay type in all cases: cell-based, Staphylococcus aureus
S. aureus [1] = experiment: Microbicidal plate assay, pEPO with amine additives, aged 0 or 5 minutes with H2O2 (Example 7); conditions: FIG. 7, 10 ug/mL pEPO, additive 3 mM, 2 mM NaBr; for microbicidal activity, Reaction 2 (aged 5 minutes with H2O2): 0.89 mM H2O2; for microbicidal activity, Reaction 1 (aged 0 min): 0.89 mM H2O2, one minute, 10^8 cfu/mL
S. aureus [2] = experiment: Microbicidal plate assay, formulations aged 1 or 30 minutes before adding bacteria, with or without ethanolamine (Examples 5 and 6); conditions: FIG. 6 compared to FIG. 5
Description: S. aureus (10^9 cfu/mL, final concentration) was added and the reaction was incubated at room temperature for one minute. The reaction was stopped by plating. The plates were incubated overnight at 36° C.
The reactions described in Example 4 were repeated with Formulations F for plates 2-5 with the added condition that the formulations were incubated (aged) 1 or 30 minutes prior to adding the S. aureus bacteria. The reaction was incubated at room temperature for one minute after the addition of bacteria. An additional sample was added (100 μg/mL pEPO; 8.9 mM H2O2; 20 mM ethanolamine; and 20 mmM NaBr).
The reactions were carried out as described in Example 5.

S. aureus [3] = experiment: Microbicidal plate assay, pEPO formulations aged two minutes to ninety-six hours with H2O2 (Examples 8 and 9); conditions: 50 ug/mL pEPO, 20 mM additive; for microbicidal activity, Reaction 2 (aged twenty-four hours): FIG. 9B; for microbicidal activity, Reaction 2 (aged twenty-four hours) / retention of microbicidal activity on ageing / microbicidal activity, Reaction 1 (aged two minutes): 10 mM NaBr, 8.9 mM H2O2; for retention of microbicidal activity on ageing: FIGS. 8A-8C, aged two minutes, twenty-four or ninety-six hours; for kill of the microbes added to aged formulations: aged for up to ninety-six hours before the addition of bacteria; for microbicidal activity, Reaction 1 (aged two minutes): FIG. 9A
S. aureus [4] = experiment: Microbicidal plate assay, hydrogen peroxide/pEPO/ethanolamine versus neat hydrogen peroxide (Example 4)

With `NCCO` [ethanolamine] the “microbicidal activity, Reaction 2 (aged 5 minutes with H2O2)” value (S. aureus [1]) was “maintained microbicidal activity”, the “microbicidal activity, Reaction 1 (aged 0 min)” value (S. aureus [1]) was “some microbicidal activity” and the “effect of ethanolamine on microbicidal activity” value (S. aureus [2]) was “significantly enhances the microbicidal activity of pEPO/H2O2 compositions”. The “microbicidal activity, Reaction 2 (aged twenty-four hours)” value (S. aureus [3]) was “retain microbicidal activity for twenty-four hours”, the “retention of microbicidal activity on ageing” value (S. aureus [3]) was “retain microbicidal activity up to at least ninety-six hours” and the “kill of the microbes added to aged formulations” value (S. aureus [3]) was “complete kill”.

For `NCCCO` [propanolamine], the “retention of microbicidal activity on ageing” value (S. aureus [3]) was “retain microbicidal activity up to at least ninety-six hours” and the “kill of the microbes added to aged formulations” value (S. aureus [3]) was “complete kill”.

For `COC(=O)CN` [glycine methyl ester, Glycine methyl ester, reference compound], the “microbicidal activity, Reaction 1 (aged two minutes)” value (S. aureus [3]) was “show initial microbicidal activity” and the “microbicidal activity, Reaction 2 (aged twenty-four hours)” value (S. aureus [3]) was “lose microbicidal activity after twenty-four hours”.

With `OCCNCCO` [diethanolamine] the “microbicidal activity, Reaction 2 (aged 5 minutes with H2O2)” value (S. aureus [1]) was “maintained microbicidal activity” and the “microbicidal activity, Reaction 1 (aged 0 min)” value (S. aureus [1]) was “some microbicidal activity”.

For `N[C@@H](CO)C(=O)O` [serine, L-serine, reference compound], the “microbicidal activity, Reaction 2 (aged 5 minutes with H2O2)” value (S. aureus [1]) was “only formulations comprising pEPO and ethanolamine or diethanolamine maintained microbicidal activity” and the “microbicidal activity, Reaction 1 (aged 0 min)” value (S. aureus [1]) was “some microbicidal activity”.

For `OO` [hydrogen peroxide], the “concentration of H2O2 effective to result in a complete kill (as low as)” value (S. aureus [4]) was 0.5 mM, the “killing the bacteria by neat hydrogen peroxide” value (S. aureus [4]; 89 mM (0.3%), no pEPO, one minute) was “ineffective in killing the bacteria” and the “kill of the bacteria” value (S. aureus [4]; hydrogen peroxide 0.5 mM with the addition of pEPO, Plate 2) was 100%.

For `NCC(N)=O` [glycinamide, Glycinamide, reference compound], the “microbicidal activity, Reaction 1 (aged two minutes)” value (S. aureus [3]) was “show initial microbicidal activity” and the “microbicidal activity, Reaction 2 (aged twenty-four hours)” value (S. aureus [3]) was “lose microbicidal activity after twenty-four hours”.
